Test results reported in patent US20240197760A1, “ACTIVATORS OF INTEGRATED STRESS RESPONSE PATHWAY FOR PROTECTION AGAINST FERROPTOSIS” (Burke Neurological Institute, priority 2021, published 2024).
*1 amine or outer side, *2 acyl side, *3 side chain or, on linkers, in order; H or OH if unused. Where a SMILES comes first, the peptide text is derived from it. Bridges are numbered along the chain shown (N, C = ends). Roman numbers before positions name the chains, in order. [ ]: non-standard residue; d: D form. Actinocin(9to1) = Cc1c2oc3c(C)ccc(C(=O)[*:1])c3nc-2c(C(=O)[*:2])c(N)c1=O; NMeV = CN[C@H](C(=O)O)C(C)C; Sar = CNCC(=O)O

What was measured:
[1] = test system: Trib3, Chac1, Bip; assay: Expression of ATF4 target genes and chaperone Bip in mouse primary neurons; format: cell-based; conditions: for effect on glucosamine induced expression of Trib3: co-treatment with glucosamine, primary neurons
Procedure: (§1) Total RNA was extracted from primary cortical neurons using NucleoSpin RNA II Kit (Clontech, Catalog number—740955-250). Thereafter, using the Taqman RNA-to-Ct, one step kit (Thermo Fisher Scientific, catalog number—4392938) and following the manufacturer's instructions, […] from each sample was mixed with the Taqman® Gene Expression Master Mix and Taqman® Gene Expression Assays for Creb1 (Catalog number—Mm00501607_m1), Bdnf (Catalog number—Mm04230607_s1), Rbbp4 (Catalog number—Mm00771401_g1), Bip (Catalog number—Mm00517691_m1), Trib3 (Catalog number—Mm00454879_m1), and Chac1 (Catalog number—Mm00509926_m1) with FAM labelled probe and Actin with VIC labelled probe all from Thermo Fisher Scientific on an Applied Biosystems 7500 Fast Real Time PCR System. For assessing gene expression of various specific Bdnf exons in mouse primary neurons, two step qPCR was used. Total RNA from primary cortical neurons was extracted using NucleoSpin RNA II Kit (Clontech, Catalog number—740955-250) and a total of 1.5 μg RNA was used to synthesize cDNA with the SuperScript® III First-Strand Synthesis System (Thermo Fisher Scientific, Catalog number—18080051). Quantitative RT-PCR was then performed using SYBR green (Thermo Fisher Scientific, Catalog number—4309155) on an Applied Biosystems 7500 Fast Real Time PCR System. Quantitative levels for all genes were normalized to the housekeeping gene GAPDH and expressed relative to the relevant control samples as fold change. The sequences of primers used in this part of the study were as follows: Bdnf I forward: […] (SEQ ID NO:9) and Bdnf I reverse: […] (SEQ ID NO:10); Bdnf II forward: […] (SEQ ID NO:11) and Bdnf II reverse: […] (SEQ ID NO:12); Bdnf IV forward #2: […] (SEQ ID NO:13) and Bdnf IV reverse #2: […] (SEQ ID NO:14); Bdnf VI forward: […] (SEQ ID NO:15) and Bdnf VI reverse: […] (SEQ ID NO:16); Bdnf VII forward: […] (SEQ ID NO:17) and Bdnf VII reverse: […] (SEQ ID NO:18) Bdnf IX forward: […] (SEQ ID NO:19) and Bdnf IX reverse: […] (SEQ ID NO:20); Gapdh forward #2: […] (SEQ ID NO:21) and Gapdh reverse #2: […] (SEQ ID NO: 22).

[2] = test system: Creb1, Bdnf, Rbbp4; assay: Plasticity gene expression by quantitative real time PCR in mouse primary neurons; format: cell-based; conditions: for effect on 2-DG led increase in Bdnf gene expression: increasing concentrations co-treated with 2-DG
Procedure: Primary immature neuronal cultures were prepared from cerebral cortex of E14 embryos (day 14 of gestation) of CD1 mice under sterile conditions. Dissected cortices were incubated at 37° C. for 20 min in EBSS solution containing papain, L-cystine and EDTA, which was activated at 37 °C for 30 min and then was filtered through […] (Millipore, catalog number—SCGP00525). Cortices were then mechanically dissociated by trituration with glass pipettes. The rDNase was added in dissociated cells followed by incubation of these dissociated cells at 37 °C for 3 min. Thereafter, these cells were centrifuged at 2800 rpm for 5 min. Then supernatant was discarded, and cell were resuspended gently in a 5 ml mixture of EBSS and 10/10 solution (4:1 ratio). Then 5 ml of 10/10 solution was added gently on top and these resuspended cells were centrifuged at 2800 rpm for 10 min. Supernatant was again discarded and cells were resuspended in 10 ml MEM, Glutamax supplement (Thermo Fisher Scientific, Catalog number—41090036) containing 10% heat inactivated fetal bovine serum (Thermo Fisher Scientific, Catalog number—16140071), 5% heat inactivated horse serum (Thermo Fisher Scientific, Catalog number—26050088), and 1% penicillin/streptomycin (Thermo Fisher Scientific, Catalog number—15140122). Thereafter, resuspended cells were filtered through 70-micron cell strainer (Thomas Scientific, catalog number—4620F02) followed by their counting through Hemocytometer. Cells were, finally, plated at the density of 1 million cells/ml onto poly-D-Lysine (PDL; Sigma Aldrich, catalog number—P6407-10X5MG) coated pates and placed in CO2-buffered incubators at 37° C.
as §1

[3] = test system: Trib3 promoter, Bdnf promoter; assay: Promoter reporter luciferase assay in primary neurons; format: cell-based, mouse; conditions: 5 μM co-treated with 2-DG 10 mM, 9 h
Procedure: Primary neurons were co-transfected with various plasmids such as different Bdnf exon promoters each tagged with firefly luciferase or Trib3 promoter tagged with firefly luciferase and pTK-renilla luciferase plasmid at 1:10 ratio using Lipofectamine 2000 (Thermo Fisher Scientific, catalog number—11668019) according to the manufacturer's instructions to control for transfection efficiency. […] Thereafter, luciferase activity was measured using dual luciferase assay kit (Promega) and bioluminometer (MDS Analytical Technologies). Final luciferase activity was calculated by normalizing firefly luciferase activity with Renilla luciferase activity and then the valued were converted to fold change with respect to control.

[4] = test system: Bdnf; assay: Bdnf gene expression in hippocampal slices submerged in ACSF; set-up: species or system mouse; conditions: 1 μg/ml with 2-DG 10 mM in ACSF
[5] = test system: hippocampal slices; assay: Long term potentiation (fEPSP) in submerged hippocampal slices; set-up: species or system mouse; conditions: 1 μg/ml with 2-DG 10 mM, 6 h, hippocampal slices
Text: Brains were quickly removed from mice sacrificed by cervical dislocation and placed in cold artificial cerebrospinal fluid (ACSF) (bubbled with 95% O2/5% CO2) containing (in mM): 124 NaCl, 4 KCl, 1 Na2HPO4, 25 NaHCO3, 2 CaCl2, 2 MgCl2, and 10 glucose. The pH and osmolarity of the solution were 7.4 and 310 mOsm/L, respectively. The hippocampus was isolated and placed on a mechanical tissue chopper to produce transverse hippocampal slices of 400 μm thickness. […] Hippocampal slices were allowed to recover for at least 90 min prior to beginning the experiment. For recordings, glass electrodes were filled with ACSF and positioned in the CA1 stratum radiatum to record fEPSPs evoked by local stimulation (0.1 ms) of Schaffer collateral fibers using a bipolar concentric electrode placed laterally to the recording electrode (˜150 μm). For LTP recordings, the voltage intensity of the stimulation test pulse (square pulse, 100 us duration) for each slice was determined to be the voltage intensity that had generated 30-40% of the maximum slope obtained using input-output relationships. Facilitation was calculated as the ratio of the slopes of the second and first fEPSPs, and plotted as a function of the inter-pulse duration. For LTP, a test pulse was applied every minute. […] Residual potentiation was calculated as the average of the last 15 min of 2 h of recordings.

[6] = 3 μM, 6 h, mouse primary neurons
[7] = 5 μM co-treated with 2-DG 10 mM, 9 h

tunicamycin
gene expression of chaperone Bip [1, 6]: increase | expression of plasticity genes Creb1 and Bdnf [2, 6]: increase

O=C[C@@H](O)[C@@H](O)[C@H](O)[C@H](O)CO [D-mannose]
effect on 2-DG led increase in Bdnf gene expression ([2]; 6 h, mouse primary neurons): decreased 2-DG led increase in Bdnf gene expression in a dose dependent manner

Cn1cc(-c2ccc3c(c2)CCN3C(=O)Cc2cccc(C(F)(F)F)c2)c2c(N)ncnc21 [GSK2606414, 7-methyl-5-(1-{[3-(trifluoromethyl)phenyl]acetyl}-2,3-dihydro-1H-indol-5-yl)-7H-pyrrolo[2,3-d]pyrimidin-4-amine]
effect on 2-DG led increase in Trib3 expression (mRNA) [1, 7]: completely blocked | effect on glucosamine induced expression of Trib3 [1]: blocked | effect on glucosamine induced expression of Trib3 ([1]; listed as PERK inhibitor I): completely blocked | effect on 2-DG led increase in Bdnf expression (mRNA) [2, 7]: blocked | effect on glucosamine led increase in Bdnf gene expression ([2]; co-treatment with glucosamine, primary neurons): blocked | effect on 2-DG led increase in Bdnf promoter activity [3]: blocked | effect on 2-DG led increase in Trib3 promoter activity [3]: completely blocked

N[C@H]1C(O)O[C@H](CO)[C@@H](O)[C@@H]1O (stereo partly shown) [glucosamine]
glucosamine induced expression of plasticity genes in combination with actinomycin D ([2]; 6 h, mouse immature primary neurons): transcription dependent | expression of plasticity genes Creb1, Bdnf and Rbbp4 (mRNA) ([2]; increasing concentrations, 6 h, mouse primary neurons): dose dependent increase

Cc1c2oc3c(C)ccc(C(=O)N[C@@H]4C(=O)N[C@H](C(C)C)C(=O)N5CCC[C@H]5C(=O)N(C)CC(=O)N(C)[C@@H](C(C)C)C(=O)O[C@@H]4C)c3nc-2c(C(=O)N[C@@H]2C(=O)N[C@H](C(C)C)C(=O)N3CCC[C@H]3C(=O)N(C)CC(=O)N(C)[C@@H](C(C)C)C(=O)O[C@@H]2C)c(N)c1=O [ActD, actinomycin D] (I: T[dV]P[Sar][NMeV] / II: T[dV]P[Sar][NMeV]; ester I:1-I:C, II:1-II:C; linker I:N-II:N via Actinocin(9to1))
effect on 2-DG led increase in Bdnf gene expression in hippocampal slices [4]: able to block | effect on 2-DG led increase in plasticity genes Creb1, Bdnf and Rbbp4 ([2]; co-treatment with 2-DG, 6 h, mouse immature primary neurons): completely blocked | effect on 2-DG led induction in LTP [5]: completely blocked

O=C[C@H](O)[C@@H](O)[C@H](O)[C@H](O)CO [D-glucose]
effect on 2-DG led increase in Bdnf gene expression ([2]; 6 h, mouse primary neurons): decreased 2-DG led increase in Bdnf gene expression in a dose dependent manner
